Measured values published in patent US12662489B2 (Sitryx Therapeutics Limited, priority 2023, dated 2026).

Experiments:
[1] = molecular target: T1, MTHFD1 recombinant human enzyme (Homo sapiens, UniProt P11586); assay: MTHFD1 inhibition assay (NAD(P)H-Glo luminescence); details: MTHFD1 IC50, recombinant human enzyme 200 nM, NADP, band
T1 sequence (P11586 2-291 limits assumed): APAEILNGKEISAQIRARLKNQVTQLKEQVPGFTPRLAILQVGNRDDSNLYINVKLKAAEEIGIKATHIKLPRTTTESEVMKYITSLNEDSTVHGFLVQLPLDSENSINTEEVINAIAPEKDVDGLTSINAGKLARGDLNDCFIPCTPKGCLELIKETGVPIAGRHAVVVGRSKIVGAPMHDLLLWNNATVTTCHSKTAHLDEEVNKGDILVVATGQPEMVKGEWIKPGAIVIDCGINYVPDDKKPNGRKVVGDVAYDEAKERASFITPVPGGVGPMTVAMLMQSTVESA

[2] = molecular target: T2, MTHFD2 recombinant human enzyme (Homo sapiens, UniProt P13995); assay: MTHFD2 inhibition assay (NAD(P)H-Glo luminescence); details: for MTHFD1/MTHFD2 IC50 ratio: selectivity of MTHFD2 inhibition over MTHFD1, band
T2 sequence (P13995 36-350): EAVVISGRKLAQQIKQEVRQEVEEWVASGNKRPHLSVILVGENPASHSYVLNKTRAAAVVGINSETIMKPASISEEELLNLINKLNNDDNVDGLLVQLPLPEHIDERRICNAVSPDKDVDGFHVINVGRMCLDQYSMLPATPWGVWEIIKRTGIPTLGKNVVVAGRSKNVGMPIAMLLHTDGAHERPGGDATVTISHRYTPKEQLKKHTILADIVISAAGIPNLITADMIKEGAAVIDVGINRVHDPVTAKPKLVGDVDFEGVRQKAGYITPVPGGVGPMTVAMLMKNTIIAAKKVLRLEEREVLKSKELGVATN

Row | IC50 [1] | IC50 [2] | MTHFD1/MTHFD2 IC50 ratio [2] | SMILES
1 | 1000 to 5000 nM | 100 to 1000 nM | H (>9.0 to 30) | COC[C@H]1CN(c2ccc3c4c(c(=O)oc3c2C)CN(C(=O)c2cc(OC3CCCC3)c(C(=O)NS(=O)(=O)C3(C)CC3)c(C(F)(F)F)c2)CC4)CCN1C [Example 101, (R)-2-(cyclopentyloxy)-4-(8-(3-(methoxymethyl)-4-methylpiperazin-1-yl)-7-methyl-5-oxo-1,3,4,5-tetrahydro-2H-chromeno[3,4-c]pyridine-3-carbonyl)-N-((1-methylcyclopropyl)sulfonyl)-6-(trifluoromethyl)benzamide]
2 | 1000 to 5000 nM | 10 to 100 nM | H (>9.0 to 30) | COC[C@H]1CN(c2cc(C)c3c4c(c(=O)oc3c2C)CN(C(=O)c2cc(OC3CCCC3)c(C(=O)NS(=O)(=O)N(C)C)c(C(F)(F)F)c2)CC4)CCN1C [Example 153, (R)-2-(cyclopentyloxy)-N-(N,N-dimethylsulfamoyl)-4-(8-(3-(methoxymethyl)-4-methylpiperazin-1-yl)-7,10-dimethyl-5-oxo-1,3,4,5-tetrahydro-2H-chromeno[3,4-c]pyridine-3-carbonyl)-6-(trifluoromethyl)benzamide]
3 | 10 to 100 nM | 10 to 100 nM | F (<3) | COC[C@H]1CN(c2cc(C)c3c4c(c(=O)oc3c2C)CN(C(=O)c2ccc(C(=O)NS(=O)(=O)N3CCCC3)c(OCC(F)(F)F)c2F)CC4)CCN1C [Example 206, (R)-3-fluoro-4-(8-(3-(methoxymethyl)-4-methylpiperazin-1-yl)-7,10-dimethyl-5-oxo-1,3,4,5-tetrahydro-2H-chromeno[3,4-c]pyridine-3-carbonyl)-N-(pyrrolidin-1-ylsulfonyl)-2-(2,2,2-trifluoroethoxy)benzamide]
4 | 10 to 100 nM | 1 to 10 nM |  | COC[C@H]1CN(c2cc(C)c3c4c(c(=O)oc3c2C)CN(C(=O)c2ccc(C(=O)NS(=O)(=O)C3(C)CC3)c(N3CC5CC5C3)c2F)CC4)CCN1C (stereo partly drawn) [Example 71, 2-(3-azabicyclo[3.1.0]hexan-3-yl)-3-fluoro-4-(8-((R)-3-(methoxymethyl)-4-methylpiperazin-1-yl)-7,10-dimethyl-5-oxo-1,3,4,5-tetrahydro-2H-chromeno[3,4-c]pyridine-3-carbonyl)-N-((1-methylcyclopropyl)sulfonyl)benzamide]
5 | 100 to 1000 nM | 10 to 100 nM | J (>30) | COC[C@H]1CN(c2cc(C)c3c4c(c(=O)oc3c2C)CN(C(=O)c2cc(N(C)C)c(C(=O)NS(=O)(=O)N3CCC(OC)CC3)cc2F)CC4)CCN1C [Example 289, (R)-2-(dimethylamino)-5-fluoro-4-(8-(3-(methoxymethyl)-4-methylpiperazin-1-yl)-7,10-dimethyl-5-oxo-1,3,4,5-tetrahydro-2H-chromeno[3,4-c]pyridine-3-carbonyl)-N-((4-methoxypiperidin-1-yl)sulfonyl)benzamide]

Second part, the compound before the results:

Row | SMILES | IC50 [1] | IC50 [2] | MTHFD1/MTHFD2 IC50 ratio [2]
6 | COC[C@H]1CN(c2ccc3c4c(c(=O)oc3c2C)CN(C(=O)c2cc(F)c(C(=O)NS(=O)(=O)N(C)C)c(N3CC5CC5C3)c2)CC4)CCN1C (stereo partly drawn) [Example 27, 2-(3-azabicyclo[3.1.0]hexan-3-yl)-N-(N,N-dimethylsulfamoyl)-6-fluoro-4-(8-((R)-3-(methoxymethyl)-4-methylpiperazin-1-yl)-7-methyl-5-oxo-1,3,4,5-tetrahydro-2H-chromeno[3,4-c]pyridine-3-carbonyl)benzamide] | 1 to 10 nM | 1 to 10 nM | F (<3)
7 | COC[C@H]1CN(c2ccc3c4c(c(=O)oc3c2C)CN(C(=O)c2ccc(C(=O)NS(=O)(=O)C3(C)CC3)c(N3C5CCC3CC5)c2)CC4)CCN1C [Example 17, (R)-2-(7-azabicyclo[2.2.1]heptan-7-yl)-4-(8-(3-(methoxymethyl)-4-methylpiperazin-1-yl)-7-methyl-5-oxo-1,3,4,5-tetrahydro-2H-chromeno[3,4-c]pyridine-3-carbonyl)-N-((1-methylcyclopropyl)sulfonyl)benzamide] | 1 to 10 nM | 10 to 100 nM | F (<3)
8 | COC[C@H]1CN(c2cc(Cl)c3c4c(c(=O)oc3c2C)CN(C(=O)c2cc(N(C)C)c(C(=O)NS(=O)(=O)N3CCC5(COC5)C3)cc2F)CC4)CCN1C [Example 273, (R)-N-((2-oxa-6-azaspiro[3.4]octan-6-yl)sulfonyl)-4-(10-chloro-8-(3-(methoxymethyl)-4-methylpiperazin-1-yl)-7-methyl-5-oxo-1,3,4,5-tetrahydro-2H-chromeno[3,4-c]pyridine-3-carbonyl)-2-(dimethylamino)-5-fluorobenzamide] | 100 to 1000 nM | 10 to 100 nM | H (>9.0 to 30)
9 | COC[C@H]1CN(c2cc(C)c3c4c(c(=O)oc3c2C)CN(C(=O)c2ccc(C(=O)NS(=O)(=O)N(C)C)c(N3CCC3)c2)CC4)CCN1C [Example 89, (R)-2-(azetidin-1-yl)-N-(N,N-dimethylsulfamoyl)-4-(8-(3-(methoxymethyl)-4-methylpiperazin-1-yl)-7,10-dimethyl-5-oxo-1,3,4,5-tetrahydro-2H-chromeno[3,4-c]pyridine-3-carbonyl)benzamide] | 1 to 10 nM | 1 to 10 nM | F (<3)
10 | COC[C@H]1CN(c2cc(C)c3c4c(c(=O)oc3c2C)CN(C(=O)c2ccc(C(=O)NS(=O)(=O)N(C)C)c(N3C5CCC3CC5)c2)CC4)CCN1C [Example 49, (R)-2-(7-azabicyclo[2.2.1]heptan-7-yl)-N-(N,N-dimethylsulfamoyl)-4-(8-(3-(methoxymethyl)-4-methylpiperazin-1-yl)-7,10-dimethyl-5-oxo-1,3,4,5-tetrahydro-2H-chromeno[3,4-c]pyridine-3-carbonyl)benzamide] | 1 to 10 nM | 1 to 10 nM | F (<3)
11 | COC[C@H]1CN(c2cc(C)c3c4c(c(=O)oc3c2C)CN(C(=O)c2cc(OC3CCCC3)c(C(=O)NS(=O)(=O)N3CCCC3)cc2F)CC4)CCN1C [Example 111, (R)-2-(cyclopentyloxy)-5-fluoro-4-(8-(3-(methoxymethyl)-4-methylpiperazin-1-yl)-7,10-dimethyl-5-oxo-1,3,4,5-tetrahydro-2H-chromeno[3,4-c]pyridine-3-carbonyl)-N-(pyrrolidin-1-ylsulfonyl)benzamide] | 10 to 100 nM | 10 to 100 nM | F (<3)
12 | COC[C@H]1CN(c2cc(C)c3c4c(c(=O)oc3c2C)CN(C(=O)c2ccc(C(=O)NS(=O)(=O)C3(C)CC3)c(N3CCC3)c2)CC4)CCN1C [Example 91, (R)-2-(azetidin-1-yl)-4-(8-(3-(methoxymethyl)-4-methylpiperazin-1-yl)-7,10-dimethyl-5-oxo-1,3,4,5-tetrahydro-2H-chromeno[3,4-c]pyridine-3-carbonyl)-N-((1-methylcyclopropyl)sulfonyl)benzamide] | 1 to 10 nM | 1 to 10 nM | G (^ 3 to 9.0)
13 | COC[C@H]1CN(c2ccc3c4c(c(=O)oc3c2C)CN(C(=O)c2cc(OC3CCCC3)c(C(=O)NS(=O)(=O)N(C)C)c(C(F)(F)F)c2)CC4)CCN1C [Example 117, (R)-2-(cyclopentyloxy)-N-(N,N-dimethylsulfamoyl)-4-(8-(3-(methoxymethyl)-4-methylpiperazin-1-yl)-7-methyl-5-oxo-1,3,4,5-tetrahydro-2H-chromeno[3,4-c]pyridine-3-carbonyl)-6-(trifluoromethyl)benzamide] | 1000 to 5000 nM | 100 to 1000 nM | H (>9.0 to 30)
14 | COC[C@H]1CN(c2ccc3c4c(c(=O)oc3c2)CN(C(=O)c2ccc(C(=O)NS(=O)(=O)N3CCCC3)c(OC3CCCC3)c2F)CC4)CCN1C [Example 183, (R)-2-(cyclopentyloxy)-3-fluoro-4-(8-(3-(methoxymethyl)-4-methylpiperazin-1-yl)-5-oxo-1,3,4,5-tetrahydro-2H-chromeno[3,4-c]pyridine-3-carbonyl)-N-(pyrrolidin-1-ylsulfonyl)benzamide] | > 5000 nM | 100 to 1000 nM | H (>9.0 to 30)
15 | COC[C@H]1CN(c2ccc3c4c(c(=O)oc3c2C)CN(C(=O)c2ccc(C(=O)NS(=O)(=O)N(C)C(C)C)c(O[C@@H]3C[C@@H]5C[C@@H]5C3)c2F)CC4)CCN1C [Example 64, 2-(((1R,3r,5S)-bicyclo[3.1.0]hexan-3-yl)oxy)-3-fluoro-N-(N-isopropyl-N-methylsulfamoyl)-4-(8-((R)-3-(methoxymethyl)-4-methylpiperazin-1-yl)-7-methyl-5-oxo-1,3,4,5-tetrahydro-2H-chromeno[3,4-c]pyridine-3-carbonyl)benzamide] | 1 to 10 nM | 1 to 10 nM | F (<3)
16 | COC[C@H]1CN(c2ccc3c4c(c(=O)oc3c2C)CN(C(=O)c2ccc(C(=O)NS(=O)(=O)N(C)C)c(OC3CCCC3)c2F)CC4)CCN1C [Example 5, (R)-2-(cyclopentyloxy)-N-(N,N-dimethylsulfamoyl)-3-fluoro-4-(8-(3-(methoxymethyl)-4-methylpiperazin-1-yl)-7-methyl-5-oxo-1,3,4,5-tetrahydro-2H-chromeno[3,4-c]pyridine-3-carbonyl)benzamide] | 1 to 10 nM | 10 to 100 nM | F (<3)
